Reference: ChEMBL document CHEMBL4049425, “Fragment-Based, Structure-Enabled Discovery of Novel Pyridones and Pyridone Macrocycles as Potent Bromodomain and Extra-Terminal Domain (BET) Family Bromodomain Inhibitors” (J Med Chem, 2017)

Legend:
Mus musculus [1] = assay: Unbound clearance in mouse at 1 mg/kg, iv or 1 mg/kg, po; assay type: ADME, organism-based; conditions: in vivo
Liver [2] = assay: Unbound intrinsic clearance in rat liver microsomes; assay type: ADME, microsome
Mus musculus [3] = assay: Fraction absorbed in portal vein of mouse at 1 mg/kg, iv or 1 mg/kg, po; assay type: ADME, organism-based; conditions: in vivo
Mus musculus [4] = assay: Unbound AUC in mouse at 1 mg/kg, po; assay type: ADME, organism-based; conditions: in vivo
MX1 = assay: Antiproliferative activity against human MX1 cells after 72 hrs by Cell Titer Glo assay; assay type: functional, cell-based; conditions: MX1, 72 h
[5] = molecular target: T1, Bromodomain-containing protein 4 (Homo sapiens, UniProt O60885); assay: Inhibition of human N-terminal His6-tagged BRD4 BD1-BD2 (57 to 550 residues) expressed in EScherichia coli BL21(DE3) after 1 hr by Alexa-647-conjugated probe based TR-FRET assay
[6] = Permeability of the compound by PAMPA; assay type: physicochemical; conditions: read-out: permeability
[7] = Fraction unbound in mouse plasma at 1 uM after 4 hrs by LC-MS/MS analysis; assay type: ADME, cell-free
[8] = Oral bioavailability in mouse at 1 mg/kg; assay type: ADME, organism-based; conditions: in vivo
Liver [9] = assay: Unbound intrinsic clearance in human liver microsomes; assay type: ADME, microsome
Liver [10] = assay: Unbound intrinsic clearance in mouse liver microsomes; assay type: ADME, microsome
[11] = Lipophilicity, log D of the compound; assay type: physicochemical; conditions: octanol/water
[12] = molecular target: T1, Bromodomain-containing protein 4; assay: Inhibition of BRD4 in human NCI-H1299 cells after 24 hrs by Bright-Glo luciferase reporter gene assay; assay type: cell-based
[13] = Oral bioavailability in mouse at 10 mg/kg; assay type: ADME, organism-based; conditions: in vivo
Mus musculus [14] = assay: Dose normalized fAUC in mouse at 3 mg/kg, iv or 10 mg/kg, po; assay type: ADME, organism-based; conditions: in vivo
Mus musculus [15] = assay: Fraction absorbed in portal vein of mouse at 3 mg/kg, iv or 10 mg/kg, po; assay type: ADME, organism-based; conditions: in vivo
Mus musculus [16] = assay: Unbound plasma clearance in mouse at 3 mg/kg, iv or 10 mg/kg, po; assay type: ADME, organism-based; conditions: in vivo
[17] = Fraction unbound in rat plasma; assay type: ADME, cell-free
Rattus norvegicus [18] = assay: Unbound AUC in rat at 1 mg/kg, po; assay type: ADME, organism-based; conditions: in vivo
Rattus norvegicus [19] = assay: Unbound clearance in rat at 1 mg/kg, iv or 1 mg/kg, po; assay type: ADME, organism-based; conditions: in vivo
[20] = Oral bioavailability in rat at 1 mg/kg; assay type: ADME, organism-based; conditions: in vivo

SMILES	CL free (Liver [2]) [mL/min/kg]	EC50 (MX1) [nM]	Ki [5] [nM]	CL free (Liver [9]) [mL/min/kg]	CL free (Liver [10]) [mL/min/kg]	logD [11]	EC50 [12] [nM]	further results
CCS(=O)(=O)c1ccc2c(c1)-c1cn(C)c(=O)cc1OCCCCc1cc(Cl)ccc1O2	700	13	2	167	883	2.8 to 4.3	16	CL free (Mus musculus [1]): 167 mL/min/kg; FaFg (Mus musculus [3]): 0.44; fAUC (Mus musculus [4]): 41 ng·h/mL; Papp [6]: 7.6 ×10⁻⁶ cm/s; fraction unbound at 4 h, 1 µM [7]: 0.04; bioavailability [8]: 41%
CCS(=O)(=O)c1ccc2c(c1)-c1cn(C)c(=O)cc1OCCc1ccccc1O2	167	710	100	100	333	2.8 to 4.3	630	
CCOC(=O)Nc1ccc(Oc2ccccc2)c(-c2nn(C)c(=O)cc2OC)c1		4500	1100				4900	
CCOc1cc(=O)n(C)cc1-c1cc(NS(=O)(=O)CC)ccc1Oc1ccc(OC(F)(F)F)cc1	3000	62	5.5	95	1500		210	
CCS(=O)(=O)Nc1ccc(Oc2ccc(F)cc2F)c(-c2cn(C)c(=O)cc2OCC(F)(F)F)c1		120	22			2.8 to 4.3	100	
CCS(=O)(=O)Nc1ccc(Oc2ccc(F)cc2F)c(-c2cn(C)c(=O)cc2OC2COC2)c1	< 41.7	25	9	76.7	150	2.8 to 4.3	48	bioavailability [13]: 20%; fraction unbound at 4 h, 1 µM [7]: 0.2; fAUC/dose (Mus musculus [14]): 0.026 µg·h/mL per mg/kg; FaFg (Mus musculus [15]): 0.3; CL free (Mus musculus [16]): 143 mL/min/kg
COc1cc(=O)n(C)nc1-c1cc(NC(C)=O)ccc1Oc1ccccc1		1300	900				370	
CCS(=O)(=O)Nc1ccc2c(c1)-c1cn(C)c(=O)cc1OCCCCCc1cc(Cl)ccc1O2	1830	16	2.8	517	4670	4.3	35	Papp [6]: 0.89 ×10⁻⁶ cm/s
COC(=O)C[C@@H]1N=C(c2ccc(Cl)cc2)c2c(sc(C)c2C)-n2c(C)nnc21			16.7					
CCOc1cc(=O)n(C)cc1-c1cc(NS(=O)(=O)CC)ccc1Oc1ccc(F)cc1F	60			< 71.7	< 100	2.8 to 4.3		bioavailability [13]: 56%; fraction unbound at 4 h, 1 µM [7]: 0.1; FaFg (Mus musculus [15]): 0.79; CL free (Mus musculus [16]): 267 mL/min/kg
CCNc1cc(=O)n(C)cc1-c1cc(NS(=O)(=O)CC)ccc1Oc1ccc(F)cc1F		30	14			2.8 to 4.3	140	
CNc1cc(=O)n(C)nc1-c1ccccc1			160000					
COc1cc(=O)n(C)nc1-c1cc(NS(C)(=O)=O)ccc1Oc1ccccc1		730	140				230	
CCS(=O)(=O)Nc1ccc(Oc2ccc(F)cc2F)c(-c2cn(C)c(=O)cc2OCCN2CCOCC2)c1		> 3000	230			2.8 to 4.3	2200	
CCS(=O)(=O)Nc1ccc(Oc2ccc(F)cc2F)c(-c2cn(C)c(=O)cc2OCC(C)C)c1		140	7			2.8 to 4.3	180	
CCS(=O)(=O)Nc1ccc(Oc2ccc(F)cc2F)c(-c2cn(C)c(=O)cc2OCC(C)(C)O)c1		710	71			2.8 to 4.3	1100	
COc1cc(=O)n(C)cc1-c1cc(NS(C)(=O)=O)ccc1Oc1ccccc1		130	58				77	
COc1cc(=O)n(C)nc1-c1cc(N)ccc1Oc1ccccc1		7200	1700				2900	

SMILES	CL free (Liver [2]) [mL/min/kg]	EC50 (MX1) [nM]	Ki [5] [nM]	CL free (Liver [9]) [mL/min/kg]	CL free (Liver [10]) [mL/min/kg]	logD [11]	EC50 [12] [nM]	further results
CCS(=O)(=O)c1ccc2c(c1)-c1cn(C)c(=O)cc1OCCCc1ccccc1O2		6.9	7.3	148	900	2.8 to 4.3	26	
CCS(=O)(=O)Nc1cnc2c(c1)-c1cn(C)c(=O)cc1OCCCCc1cc(Cl)ccc1O2	153	5.7	3.4	63.3	1030	2.8 to 4.3	9.3	CL free (Mus musculus [1]): 102 mL/min/kg; FaFg (Mus musculus [3]): 0.76; fAUC (Mus musculus [4]): 120 ng·h/mL; fraction unbound [17]: 0.12; Papp [6]: 7.2 ×10⁻⁶ cm/s; fAUC (Rattus norvegicus [18]): 5 ng·h/mL; CL free (Rattus norvegicus [19]): 833 mL/min/kg; fraction unbound at 4 h, 1 µM [7]: 0.06; bioavailability [20]: 19%; bioavailability [8]: 70%
CCOc1cc(=O)n(C)cc1-c1cc(NS(=O)(=O)CC)ccc1OC1CCC(F)(F)CC1	183	250	110	35	167		390	
CCOc1cc(=O)n(C)cc1-c1cc(NS(=O)(=O)CC)ccc1Oc1ccc(C#N)cc1	< 43.3	53	16	< 26.7	< 76.7		55	
CCOc1cc(=O)n(C)cc1-c1cc(NS(=O)(=O)CC)ccc1Oc1ccc(F)cc1	167	16	5.6	< 33	< 98.3		69	
COc1cc(=O)n(C)cc1-c1ccccc1Oc1ccccc1		1500	450				2800	
CCOc1cc(=O)n(C)cc1-c1cc(NS(=O)(=O)CC)ccc1Oc1ccccc1	3000	4.7	4.4	67	91.7		39	
CCOc1cc(=O)n(C)cc1-c1cc(NS(=O)(=O)CC)cnc1Oc1ccc(F)cc1F		32	8.7			2.8 to 4.3	45	
CCNC(=O)Nc1ccc(Oc2ccccc2)c(-c2nn(C)c(=O)cc2OC)c1		13000	1900				2800	
CCOc1cc(=O)n(C)cc1-c1cc(S(=O)(=O)CC)ccc1Oc1ccc(F)cc1F	103	40		< 33	200	2.8 to 4.3	66	bioavailability [13]: 41%; fraction unbound at 4 h, 1 µM [7]: 0.1; fAUC/dose (Mus musculus [14]): 0.039 µg·h/mL per mg/kg; FaFg (Mus musculus [15]): 0.52; CL free (Mus musculus [16]): 167 mL/min/kg
CCS(=O)(=O)c1ccc2c(c1)-c1cn(C)c(=O)cc1OCCCCc1ccccc1O2	533	10	1.9	130	867	2.8 to 4.3	6.7	
Cn1cc2c(cc1=O)OCCCCc1cc(Cl)ccc1Oc1ccc(CS(C)(=O)=O)cc1-2	317	19	3.8	267	1670	2.8 to 4.3	18	CL free (Mus musculus [1]): 400 mL/min/kg; FaFg (Mus musculus [3]): 0.79; fAUC (Mus musculus [4]): 29 ng·h/mL; Papp [6]: 9.2 ×10⁻⁶ cm/s; fraction unbound at 4 h, 1 µM [7]: 0.03; bioavailability [8]: 68%
CCS(=O)(=O)Nc1ccc2c(c1)-c1cn(C)c(=O)cc1OCCCCc1cc(F)cc(F)c1O2	317			67	700	2.8 to 4.3		fAUC (Mus musculus [4]): 8 ng·h/mL; Papp [6]: 6.8 ×10⁻⁶ cm/s; fraction unbound at 4 h, 1 µM [7]: 0.03
CCS(=O)(=O)Nc1ccc(Oc2ccccc2)c(-c2cn(C)c(=O)cc2OC)c1		16	8.2				67	
CCOc1cc(=O)n(C)cc1-c1cc(CS(C)(=O)=O)ccc1Oc1ccc(F)cc1F		140	120			2.8 to 4.3	230	
CCS(=O)(=O)Nc1cnc2c(c1)-c1cn(C)c(=O)cc1OCCCCc1cc(F)cc(F)c1O2	75	4.2	0.8	< 28.3	250	2.8 to 4.3	6.4	CL free (Mus musculus [1]): 317 mL/min/kg; FaFg (Mus musculus [3]): 0.49; fAUC (Mus musculus [4]): 15 ng·h/mL; Papp [6]: 9 ×10⁻⁶ cm/s; fraction unbound at 4 h, 1 µM [7]: 0.12; bioavailability [8]: 27%
CCOc1cc(=O)n(C)cc1-c1cc(NS(=O)(=O)CC)ccc1Oc1ccc(Cl)cc1	88.3	18	2.6	< 50	< 148		27	
CCOc1cc(=O)n(C)cc1-c1cc(NS(=O)(=O)CC)ccc1Oc1cccnc1	< 53.3	50	17	< 31.7	< 53.3		150	
